Measured values as given in PubChem BioAssay (NCI).
Where “and” joins values, the source holds several entries; their conditions need not be identical. Identical values can stand only once.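 Cells were grown in 96-well plates and exposed to each compound for 48 hours at five concentrations; endpoints were interpolated linearly between bracketing concentrations, or set to the highest concentration if not reached. GI50 marks 50% less growth. TGI: total growth inhibition.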

How the values were obtained:
Assay in all cases: growth of human tumour cells (NCI), 48 h
LOX IMVI melanoma = system: LOX IMVI melanoma
HOP-62 NSCLC = system: HOP-62 NSCLC
EKVX NSCLC = system: EKVX NSCLC
MDA-N = system: MDA-N
A498 renal = system: A498 renal
NCI-H226 lung = system: NCI-H226 lung
MCF7 breast = system: MCF7 breast
IGROV1 ovarian = system: IGROV1 ovarian
OVCAR-5 ovarian = system: OVCAR-5 ovarian
KM20L2 colon = system: KM20L2 colon
DLD-1 colon = system: DLD-1 colon
M19-MEL melanoma = system: M19-MEL melanoma

Work on CC(C)(C)c1ccc(O)c(Br)c1 yielded a TGI (LOX IMVI melanoma) of over 100 µM, a TGI (HOP-62 NSCLC) of over 100 µM and a TGI (EKVX NSCLC) of over 100 µM. For the same compound, the TGI (MDA-N) was over 100 µM, the TGI (A498 renal) was over 100 µM and the TGI (NCI-H226 lung) was over 100 µM. The TGI (MCF7 breast) was over 100 µM, the TGI (IGROV1 ovarian) was over 100 µM and the TGI (OVCAR-5 ovarian) was over 100 µM.

For CC(C)(C)OC(=O)N1C(C2=COc3ccccc3O2)=COc2cccnc21, the TGI (LOX IMVI melanoma) was 3.36 µM, the TGI (HOP-62 NSCLC) was 3.5 µM and the TGI (EKVX NSCLC) was 4.03 µM. For the same compound, the TGI (MDA-N) was 4.68 µM, the TGI (A498 renal) was 3.32 µM and the TGI (NCI-H226 lung) was 4.31 µM. For the same compound, the TGI (MCF7 breast) was 3.08 µM, the TGI (IGROV1 ovarian) was 3.35 µM and the TGI (OVCAR-5 ovarian) was 3.4 µM.

CC(Br)C(=O)c1ccc2cc(Br)c3ccccc3c2c1 (stereo not drawn) was tested, and the TGI (LOX IMVI melanoma) was 20.4 µM, the TGI (HOP-62 NSCLC) was 32.4 µM and the TGI (EKVX NSCLC) was 28.9 µM. It also gave a TGI (MDA-N) of 27 µM, a TGI (A498 renal) of 33.1 µM and a TGI (MCF7 breast) of 30.1 µM. For the same compound, the TGI (IGROV1 ovarian) was 26.3 µM and the TGI (OVCAR-5 ovarian) was 31.4 µM.

Compound Cc1cc(O)c2c(c1O)C(=O)c1c(O)ccc(O)c1C2=O has a TGI (LOX IMVI melanoma) of over 100 µM, a TGI (HOP-62 NSCLC) of over 100 µM and a TGI (EKVX NSCLC) of over 100 µM. It also gave a TGI (MDA-N) of over 100 µM, a TGI (A498 renal) of over 100 µM and a TGI (NCI-H226 lung) of over 100 µM. The TGI (MCF7 breast) was over 100 µM, the TGI (IGROV1 ovarian) was over 100 µM and the TGI (OVCAR-5 ovarian) was over 100 µM.

O=P(O)(O)OP(=O)(O)O showed a TGI (LOX IMVI melanoma) of over 100 µM, a TGI (HOP-62 NSCLC) of over 100 µM and a TGI (EKVX NSCLC) of over 100 µM. For the same compound, the TGI (MDA-N) was over 100 µM, the TGI (A498 renal) was over 100 µM and the TGI (MCF7 breast) was over 100 µM. The TGI (IGROV1 ovarian) was over 100 µM and the TGI (OVCAR-5 ovarian) was over 100 µM.

Compound COc1cccc(/C=N/[N-]C(N)=O)c1[O-].[Cu+2].[OH3+].c1cnc2c(c1)ccc1cccnc12 has a TGI (LOX IMVI melanoma) of 48.2 µM, a TGI (HOP-62 NSCLC) of 36 µM and a TGI (EKVX NSCLC) of 34.4 µM. It also gave a TGI (A498 renal) of 21.8 µM, a TGI (NCI-H226 lung) of 42.5 µM and a TGI (IGROV1 ovarian) of 45.7 µM. The TGI (OVCAR-5 ovarian) was over 100 µM and the TGI (KM20L2 colon) was over 100 µM.

For O=S1c2ccccc2N=C(c2ccc3ccccc3c2)CC1c1ccccc1 (stereo not drawn), the TGI (LOX IMVI melanoma) was 36.5 µM, the TGI (DLD-1 colon) was 48.4 µM and the TGI (HOP-62 NSCLC) was over 100 µM. The TGI (EKVX NSCLC) was 91.5 µM, the TGI (A498 renal) was 35.9 µM and the TGI (M19-MEL melanoma) was 34.9 µM. The TGI (NCI-H226 lung) was 78.9 µM, the TGI (IGROV1 ovarian) was 40.3 µM and the TGI (OVCAR-5 ovarian) was 42.9 µM. For the same compound, the TGI (KM20L2 colon) was 35.7 µM.

Work on O=c1oc2c(ccc3occc32)c(N2CCCCC2)c1-c1ccccc1 yielded a TGI (LOX IMVI melanoma) of over 100 µM, a TGI (DLD-1 colon) of over 100 µM and a TGI (HOP-62 NSCLC) of over 100 µM. It also gave a TGI (EKVX NSCLC) of over 100 µM, a TGI (A498 renal) of over 100 µM and a TGI (M19-MEL melanoma) of over 100 µM. For the same compound, the GI50 (NCI-H226 lung) was over 100 µM, the TGI (NCI-H226 lung) was over 100 µM and the TGI (MCF7 breast) was over 100 µM. It also gave a TGI (IGROV1 ovarian) of over 100 µM, a TGI (OVCAR-5 ovarian) of over 100 µM and a TGI (KM20L2 colon) of over 100 µM.

In the case of C[C@H](Nc1ccc(C#N)n(C)c1=O)c1cc2cc(Cl)ccc2[nH]c1=O, the GI50 (LOX IMVI melanoma) is reported as 33.1 µM, the TGI (LOX IMVI melanoma) is reported as over 100 µM and the GI50 (HOP-62 NSCLC) is reported as 25.7 µM. It also gave a TGI (HOP-62 NSCLC) of over 100 µM, a GI50 (EKVX NSCLC) of 21.1 µM and a TGI (EKVX NSCLC) of over 100 µM. The GI50 (A498 renal) was 20.4 µM, the TGI (A498 renal) was 92.2 µM and the GI50 (NCI-H226 lung) was 23.4 µM. The TGI (NCI-H226 lung) was over 100 µM, the GI50 (MCF7 breast) was 23.2 µM and the TGI (MCF7 breast) was over 100 µM. The GI50 (IGROV1 ovarian) was 16 µM, the TGI (IGROV1 ovarian) was 89.7 µM and the GI50 (OVCAR-5 ovarian) was 66.6 µM. It also gave a TGI (OVCAR-5 ovarian) of over 100 µM.

Compound Cc1cc(N2CCOCC2)nc(N(CCCNc2ccnc3cc(Cl)ccc23)Cc2ccc3c(c2)OCO3)n1 has a GI50 (EKVX NSCLC) of 2.29 µM, a TGI (EKVX NSCLC) of 5.55 µM and a GI50 (A498 renal) of 1.51 µM. It also gave a TGI (A498 renal) of 3.42 µM.

CCN(CC)/[N+]([O-])=N/OC showed a TGI (LOX IMVI melanoma) of over 100 µM, a TGI (HOP-62 NSCLC) of over 100 µM and a TGI (EKVX NSCLC) of over 100 µM. It also gave a TGI (A498 renal) of over 100 µM, a TGI (M19-MEL melanoma) of over 100 µM and a TGI (NCI-H226 lung) of over 100 µM. It also gave a TGI (IGROV1 ovarian) of over 100 µM, a TGI (OVCAR-5 ovarian) of over 100 µM and a TGI (KM20L2 colon) of over 100 µM.

COC1OC(C(=O)CP(=O)(OC)OC)C(OCc2ccccc2)C(OCc2ccccc2)C1OCc1ccccc1 (stereo not drawn) was tested, and the TGI (LOX IMVI melanoma) was 33.1 µM and 32.6 µM, the TGI (HOP-62 NSCLC) was 32 µM and 32.5 µM and the TGI (EKVX NSCLC) was 29.4 µM and 32.2 µM. For the same compound, the TGI (MDA-N) was 29.8 µM and 30.8 µM, the TGI (A498 renal) was 27.1 µM and the TGI (NCI-H226 lung) was 39.5 µM and 35.1 µM. For the same compound, the TGI (MCF7 breast) was 30.5 µM, the TGI (IGROV1 ovarian) was 35.9 µM and 35.4 µM and the TGI (OVCAR-5 ovarian) was 29.2 µM and 31.8 µM.

O=C(CSc1nc2ccc(Cl)cc2c(=O)n1-c1ccccc1)N=Nc1c(O)[nH]c2ccc(F)cc12 showed a TGI (LOX IMVI melanoma) of 3.22 µM, a TGI (HOP-62 NSCLC) of 4.19 µM and a TGI (EKVX NSCLC) of 14.4 µM. The TGI (MDA-N) was 7.53 µM, the TGI (A498 renal) was 9.8 µM and the TGI (NCI-H226 lung) was 12.6 µM. The TGI (MCF7 breast) was 4.64 µM, the TGI (IGROV1 ovarian) was 4.39 µM and the TGI (OVCAR-5 ovarian) was 9.01 µM.

Work on CCCCCCOC(=O)C(N)Cc1ccc(OC)cc1 (stereo not drawn) yielded a TGI (LOX IMVI melanoma) of over 100 µM, a TGI (HOP-62 NSCLC) of over 100 µM and a TGI (EKVX NSCLC) of over 100 µM. For the same compound, the TGI (NCI-H226 lung) was over 100 µM, the TGI (MCF7 breast) was over 100 µM and the TGI (IGROV1 ovarian) was over 100 µM. It also gave a TGI (OVCAR-5 ovarian) of over 100 µM.

For C/C(=C\CNc1ncnc2nc(Cl)[nH]c12)CO, the TGI (LOX IMVI melanoma) was over 100 µM, the TGI (HOP-62 NSCLC) was over 100 µM and the TGI (EKVX NSCLC) was over 100 µM. For the same compound, the TGI (MDA-N) was over 100 µM, the TGI (A498 renal) was over 100 µM and the TGI (NCI-H226 lung) was over 100 µM. It also gave a TGI (MCF7 breast) of over 100 µM, a TGI (IGROV1 ovarian) of over 100 µM and a TGI (OVCAR-5 ovarian) of over 100 µM.

Work on O=CC(O)C(O)C(O)COc1cc(CO)cc2c1C(=O)c1ccccc1C2=O (stereo not drawn) yielded a TGI (LOX IMVI melanoma) of over 100 µM, a TGI (DLD-1 colon) of over 100 µM and a TGI (HOP-62 NSCLC) of over 100 µM. For the same compound, the TGI (EKVX NSCLC) was over 100 µM, the TGI (A498 renal) was over 100 µM and the TGI (M19-MEL melanoma) was over 100 µM. It also gave a TGI (NCI-H226 lung) of over 100 µM, a TGI (IGROV1 ovarian) of over 100 µM and a TGI (OVCAR-5 ovarian) of over 100 µM. For the same compound, the TGI (KM20L2 colon) was over 100 µM.

In the case of COC(=N)C(C)C, the TGI (LOX IMVI melanoma) is reported as over 100 µM, the TGI (DLD-1 colon) is reported as over 100 µM and the TGI (HOP-62 NSCLC) is reported as over 100 µM. It also gave a TGI (M19-MEL melanoma) of over 100 µM, a TGI (NCI-H226 lung) of over 100 µM and a TGI (IGROV1 ovarian) of over 100 µM. The TGI (OVCAR-5 ovarian) was over 100 µM and the TGI (KM20L2 colon) was over 100 µM.

For CC(C)c1ccc2c(c1)[C@@]1(C)CC[C@H](C)C(C)(C)C1CC2 (stereo partly drawn), the TGI (LOX IMVI melanoma) was 32 µM, the TGI (HOP-62 NSCLC) was 35.2 µM and the TGI (EKVX NSCLC) was 35.2 µM. The TGI (MDA-N) was 56.3 µM, the TGI (A498 renal) was 34.9 µM and the TGI (NCI-H226 lung) was 32.3 µM. The TGI (MCF7 breast) was 32.1 µM, the TGI (IGROV1 ovarian) was over 100 µM and the TGI (OVCAR-5 ovarian) was 52.6 µM.

Work on Clc1ccc(NCc2nnc(COc3ccc(OCc4nnc(CNc5ccc(Cl)cc5)o4)c(Cl)c3)o2)cc1 yielded a TGI (LOX IMVI melanoma) of over 100 µM, a TGI (HOP-62 NSCLC) of over 100 µM and a TGI (EKVX NSCLC) of over 100 µM. For the same compound, the TGI (MDA-N) was over 100 µM, the TGI (A498 renal) was over 100 µM and the TGI (NCI-H226 lung) was over 100 µM. It also gave a TGI (MCF7 breast) of 88.3 µM, a TGI (IGROV1 ovarian) of over 100 µM and a TGI (OVCAR-5 ovarian) of over 100 µM.

In the case of NCCCCN, the TGI (LOX IMVI melanoma) is reported as over 100 µM, the TGI (HOP-62 NSCLC) is reported as over 100 µM and the TGI (EKVX NSCLC) is reported as over 100 µM. For the same compound, the TGI (A498 renal) was over 100 µM, the TGI (NCI-H226 lung) was over 100 µM and the TGI (MCF7 breast) was over 100 µM. It also gave a TGI (IGROV1 ovarian) of over 100 µM and a TGI (OVCAR-5 ovarian) of over 100 µM.

CN(C)C/C=C(/c1ccc(Br)cc1)c1cccnc1 was tested, and the TGI (HOP-62 NSCLC) was over 100 µM, the TGI (EKVX NSCLC) was over 100 µM and the TGI (MDA-N) was over 100 µM. For the same compound, the TGI (A498 renal) was 57.8 µM, the TGI (NCI-H226 lung) was over 100 µM and the TGI (MCF7 breast) was over 100 µM. It also gave a TGI (IGROV1 ovarian) of over 100 µM and a TGI (OVCAR-5 ovarian) of over 100 µM.
